# According to article PMC8869629, “Comparison of Various Solvent Extracts and Major Bioactive Components from Portulaca oleracea for Antioxidant, Anti-Tyrosinase, and Anti-α-Glucosidase Activities” (Antioxidants, 2022):
# How the values were obtained:
# [1] = DPPH radical scavenging assay; format: biochemical; settings: mean ± SD (n = 3)
# Method: The DPPH radical scavenging assay was determined by the reference method.
# [2] = Hydroxyl radical scavenging assay; format: biochemical; settings: mean ± SD (n = 3)
# Method: The samples were evaluated for hydroxyl radical scavenging activity based on the previously described method.
# [3] = ABTS cation radical scavenging assay; format: biochemical; settings: mean ± SD (n = 3)
# Method: The ABTS cation radical scavenging assay was carried out using the reference method.
# [4] = Superoxide anion radical scavenging assay (PMS-NADH-NBT); format: biochemical; settings: isolated components (Table 5); mean ± SD (n = 3)
# Method: Superoxide anion radical (O2^•−) scavenging activity was described earlier with slight changes. […] The reaction was initiated by adding 50 μL of NADH (468 μM) solution to the mixture. After incubating at room temperature for 5 min, the activity of samples was determined by calculating the decrease in absorbance measured at 560 nm by the following equation,
# Superoxide anion radical scavenging activity (%) = (A0 − A1)/A0 × 100, where A1 is the absorbance of the test sample and A0 is the absorbance of the control.
# IC50 values for the tested activities were determined by linear regression of the percentage of remaining superoxide anion radicals against sample concentration.
# α-glucosidase = α-glucosidase (Saccharomyces cerevisiae, UniProt P53341); assay: biochemical
# Method: α-Glucosidase inhibitory activity was established in accordance with the described method with slight modifications. In brief, 100 μL of different concentrations of the sample, 380 μL of p-nitro-phenyl-α-D-glucopyranoside (p-NPG) (0.53 mM), and 20 μL of α-Glucosidase solution (1 units/mL) were mixed in 0.1 M potassium phosphate buffer (pH 6.8). After incubating at 37 °C for 20 min, 500 μL of sodium carbonate (0.1 M) was added in order to quench the reaction. The anti-α-glucosidase activity of the sample was determined by calculating the decrease in absorbance measured at 405 nm by the following equation,
# Inhibition (%) = (A0 − A1)/A0 × 100, where A1 is the absorbance of the test sample and A0 is the absorbance of the control.
# Sequence of α-glucosidase (P53341 whole entry): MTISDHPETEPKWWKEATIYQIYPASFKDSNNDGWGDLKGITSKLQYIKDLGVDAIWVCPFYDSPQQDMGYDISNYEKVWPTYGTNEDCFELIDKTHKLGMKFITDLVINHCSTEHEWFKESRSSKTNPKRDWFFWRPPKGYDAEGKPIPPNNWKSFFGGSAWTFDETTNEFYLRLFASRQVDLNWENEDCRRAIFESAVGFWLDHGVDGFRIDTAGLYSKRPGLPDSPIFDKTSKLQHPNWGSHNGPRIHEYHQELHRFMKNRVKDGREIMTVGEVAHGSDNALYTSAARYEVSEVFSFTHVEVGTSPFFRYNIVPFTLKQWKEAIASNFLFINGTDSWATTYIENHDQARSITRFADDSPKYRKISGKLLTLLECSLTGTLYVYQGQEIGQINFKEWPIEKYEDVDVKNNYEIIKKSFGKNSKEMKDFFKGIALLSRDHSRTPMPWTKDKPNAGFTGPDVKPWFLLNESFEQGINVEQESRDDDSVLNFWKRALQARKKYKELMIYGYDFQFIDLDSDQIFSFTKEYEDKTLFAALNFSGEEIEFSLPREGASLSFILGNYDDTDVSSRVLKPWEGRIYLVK
SMILES,IC50 DPPH ([1]; isolated components (Table 5)),IC50 DPPH ([1]; solvent extracts (Table 2)),IC50 Hydroxyl ([2]; isolated components (Table 5)),IC50 Hydroxyl ([2]; solvent extracts (Table 2)),IC50 ABTS ([3]; isolated components (Table 5)),IC50 ABTS ([3]; solvent extracts (Table 2)),IC50 Superoxide [4],IC50 (α-glucosidase)
"Cc1cc(C(C)(C)C)c(O)c(C(C)(C)C)c1 [BHT, Butylated hydroxytoluene, reference compound]",31.04 ± 2.12 µg/mL,39.88 ± 1.30 µg/mL,58.62 ± 2.75 µg/mL,65.90 ± 1.23 µg/mL,19.34 ± 2.18 µg/mL,20.34 ± 1.69 µg/mL,,
"O=C(O)/C=C/c1ccc(O)c(O)c1 [Caffeic acid, caffeic acid]",0.81 ± 0.09 µg/mL,,153.04 ± 85.84 µg/mL,,27.85 ± 18.95 µg/mL,,57.34 ± 7.44 µg/mL,942 µM
"O=C(/C=C/c1ccc(O)c(O)c1)O[C@H](Cc1ccc(O)c(O)c1)C(=O)O [Rosmarinic acid, rosmarinic acid]",1.87 ± 0.09 µg/mL,,6.56 ± 4.77 µg/mL,,27.11 ± 14.00 µg/mL,,61.62 ± 6.43 µg/mL,514 µM
"O=C(O)/C=C/c1ccc(O)cc1 [p-Coumaric acid, p-coumaric acid]",204.13 ± 9.78 µg/mL,,60.70 ± 69.24 µg/mL,,27.01 ± 6.12 µg/mL,,256.00 ± 16.27 µg/mL,> 2440 µM

# Second part, led by results:
IC50 DPPH ([1]; isolated components (Table 5)),IC50 DPPH ([1]; solvent extracts (Table 2)),IC50 Hydroxyl ([2]; isolated components (Table 5)),IC50 Hydroxyl ([2]; solvent extracts (Table 2)),IC50 ABTS ([3]; isolated components (Table 5)),IC50 ABTS ([3]; solvent extracts (Table 2)),SMILES,IC50 Superoxide [4],IC50 (α-glucosidase)
2.32 ± 0.17 µg/mL,,11.46 ± 5.60 µg/mL,,8.75 ± 0.90 µg/mL,,"O=c1c(O)c(-c2ccc(O)cc2)oc2cc(O)cc(O)c12 [Kaempferol, kaempferol]",541.00 ± 18.47 µg/mL,
1.07 ± 0.13 µg/mL,,9.75 ± 4.39 µg/mL,,11.46 ± 1.82 µg/mL,,"O=c1c(O)c(-c2ccc(O)c(O)c2)oc2cc(O)cc(O)c12 [Quercetin, quercetin]",44.08 ± 3.07 µg/mL,
3.81 ± 0.18 µg/mL,,68.26 ± 65.58 µg/mL,,24.47 ± 16.45 µg/mL,,"COc1cc(/C=C/C(=O)O)ccc1O [trans-Ferulic acid, trans-ferulic acid]",541.00 ± 26.95 µg/mL,> 2060 µM
